The source of these data is patent publication US6100377A, “Constrained peptides” (The Trustees of the University of Pennsylvania, priority 1994, dated 2000).

Assay [1] addresses T1, F1-gp120 binding to CD4+ human cells (Human immunodeficiency virus type 1 group M subtype B, UniProt P04578).
T1 construct: Recombinant gp-120 was obtained from Raymond Sweet at Smith Kline Beecham and directly fluoresceinated; purchased Raymond Sweet at Smith Kline Beecham (obtained, not a catalogue product); host or cells: CD4+ human cells (Jurkat CD4+)
Put plainly: Inhibition of fluoresceinated gp120 binding to CD4+ cells (flow microfluorimetry). The note with it: compound 1 mg. The procedure: This assay uses fluoresceinated gp120 and monitors its ability to bind to CD4+.
Recombinant gp-120 was obtained from Raymond Sweet at Smith Kline Beecham and directly fluoresceinated. Flow microfluorimetry was performed using a FACScan. Chen, et al., (1992) Proc. Nat'l. Acad. Sci. U.S.A., 89:5872-5876; Weiner, et al., (1990) Cancer Detection and Prevention, 14:317-320; and Weiner, et al., (1990) Vaccines, 339-345, discloses the assay was done using the CD4 related synthetic compounds or, separately, monoclonal anti-CD4 antibody as described.

The subject of another assay is CD4+ T cells. Put plainly: Blocking of T cell activation by tetanus toxoid (3H-TdR incorporation). On the set-up: dose or concentration left out as unconfirmed. The format is cell-based. As to conditions: 10^4 T cells + tetanus toxoid, 48 hours. How it is done:
10^4 blood monocytes were pulsed with […] of tetanus toxoid for
hours. 10^4 CD4+ T cells were added with the compounds […] in
a final volume of […] of media. The cells were pulsed with […]
HTdR and assayed at 48 hours.

Another assay has as its target T2, sCD4 binding to DRb2 (Homo sapiens, UniProt P01911).
T2 construct: made in house
Briefly: CD4 receptor-DRb2 blocking: 125I-sCD4 binding to immobilized DRb2 peptide. How it is done:
The peptidic fragment is first coupled to activated sepharose 4B (0.5 mg of peptide/ml of beads).
75 μg of the recombinant soluble CD4 was labelled with 2 mCi of Bolotn Hunter reagent (Dupont/New England Nuclear) in 100 mM sodium borate, pH 8.5, in a volume of 150 μl. The labelled CD4 was separated from the unconjugated reagent on a G-50 Sephadex column containing PBS/0.1% gelatin and stored at -70° C.
HPLC purified forms of the DRb2 peptide were prepared. The peptide ([…] in 0.1M ammonium bicarbonate, pH 7.8) was immobilized on Falcon microtiter plates by overnight exposure. After washing several times and blocking with 2% BSA in HBSS pH 7.6 for 2 hours we add […] of ^125 I labelled sCD4. After 1 hour at room temperature the wells are washed 5× and the radioactivity counted.

The subject of assay [2] is responder CD4+ T cells + allogeneic cells. Put plainly: Blocking of the mixed lymphocyte response. It is filed as cell-based, human. The note with it: .1 mg printed in table line. How it is done:
Responder purified CD4+ T cells were used in a mixed lymphocyte response against completely allogeneic human cells. The compounds were added at 10 μg/ml final concentration. The number of responder cells was 10^5 and the number of stimulators 4×10^5 cells per well.

A further assay concerns HIV-1MN. Briefly: Syncytium assay, HIV. It is filed as cell-based. As to conditions: for syncytia: none 100. How it is done: Chen, et al., (1992) Proc. Nat'l. Acad. Sci. U.S.A., 89:5872-5876; Weiner, et al. (1990) Cancer Detection and Prevention, 14:317-320, discloses Sup T1 cells are used as target cells because of their rapid and high degree of fusion when co-cultured with HIV-1 producing cell lines. Uninfected target cells were assayed by co-culture with HIV-infected cells (H9/IIIB.) Washed, HIV-infected cells are plated in 96-well plates (10^4 cells/well in RPMI 1640+10% FCS) and incubated for 30 min at 37° C. Target cells are then added at 5×10^5 /well and the number of syncytia is qualitatively determined after a 48-hour incubation period. CD4 forms to be tested are added at time 0 or 24 hours after the assay has been initiated. Graded doses are used, controls including random linear peptides are also added independently. sCD4 and antibodies to CD4 are used as positive controls.
Another neutralization assay which is used in the field is as follows. One hundred TCID50 of HIV-1/IIIB or HIV-1/MN cell-free virus is preincubated with serial dilutions of compounds for 1 hour at 37° C. Following incubation, the pretreated virus was then plated on 4×10^4 MT-2 target cells, for 1 hour at 37° C. The MT-2 cells were then washed 3 times and incubated at 37° C. with 5% CO2. Fusion was evaluated 3 days later quantitatively by counting the number of syncytia per well in triplicate under a phase contrast microscope. The neutralization value (the ability of a compound to inhibit HIV infection 0 Vn/Vo) is calculated by dividing the mean number of syncytia per well following treatment with specific antiserum by the mean number of syncytia per well without antiserum (see: Montefiori, et al., (1988) J. Clin. Microbiol., 26:231-235).

Assay [3] concerns ABA delayed type hypersensitivity. Put plainly: In vivo inflammation: delayed type hypersensitivity to azobenzenearsonate (ABA). On the set-up: species or system mouse. As to conditions: 100 μg total dose. The procedure:
The effects of macrocyclics on in vivo inflammation were examined as follows. The effects of cyclic compounds disclosed in Table I on in vivo inflammatory response to Azobenzenearsonate was performed using treated groups of ABA primed normal Balb/c or Va3.1 transgenic mice with either 1) intravenously administered anti-CD4 monoclonal antibodies, 2) intravenously administered anti-class II antibodies, 3) systemically administered soluble forms of the most efficacious constrained macrocyclics 4) intravenously administered ABA coupled mononuclear cells, and 5) control antibodies and control macrocyclics. […]
The delayed type hypersensitivity assay is performed as follows. Five days after priming a mouse with hapten coupled cells, the hind left footpad is measured using an engineer's caliper (Fowler). […] Twenty four hours later, the degree of swelling is measured in the footpad. […]
For priming, mice (normal or transgenic with a T-cell receptor that recognizes ABA) are injected subcutaneously in each flank using a 23 g needle with 0.1 ml of ABA- or TNP-coupled spleen cells (3×10^7).Five days later, ear thickness and footpad thickness is measured with a caliper. […] Twenty four hours after challenge, the ears and footpads are measured and the animals sacrificed by cervical dislocation. […]

What is called % Inhibition is the share of the control response that was lost under treatment.

Bridge positions count the residues as written; N and C are the ends. Ends that are not written are not given here. Peptide text beside a SMILES is read from it.

As to `CC(C)[C@@H]1NC(=O)[C@H](CCC(=O)O)NC(=O)[C@@H](NC(=O)[C@@H](N)Cc2ccccc2)CSSC[C@@H](C(=O)N[C@@H](Cc2ccc(O)cc2)C(=O)O)NC(=O)[C@H](CCC(=O)O)NC(=O)[C@H](CCCCN)NC(=O)[C@H](CCC(N)=O)NC(=O)[C@H](CC(=O)O)NC(=O)[C@H](CCC(=O)O)NC1=O` [SEQ ID NO:8, F, C, E, V, E, D, Q, K, E, C, Y] (H-FCEVEDQKECY-OH; disulfide 2-10), the “% Inhibition” value in assay [1] came out at 83%.
For the compound `CC(C)C[C@@H]1NC(=O)[C@H](Cc2ccccc2)NC(=O)[C@H](CO)NC(=O)CNC(=O)[C@H](CCC(N)=O)NC(=O)[C@H](CC(N)=O)NC(=O)[C@@H](NC(=O)[C@@H](N)Cc2ccc(O)cc2)CSSC[C@@H](C(=O)N[C@@H](Cc2ccc(O)cc2)C(=O)O)NC1=O` [SEQ ID NO:1, Y, C, N, Q, G, S, F, L, C, Y] (H-YCNQGSFLCY-OH; disulfide 2-9), the “% Inhibition” value in assay [1] was 33%. In the assay with CD4+ T cells, the “% response” value worked out at 77%.
With “F, C, Y, I, C, E, V, E, D, Q, C, Y (FCYICEVEDQCY; also: cyclized, ring type and places not given here) [SEQ ID NO:7, CD4, 84-91 cyclized, CDR3-like, Human]”, the “% inhibition of sCD4 binding” value with sCD4 binding to DRb2 (.1 mg compound, first experiment) is 48%; with sCD4 binding to DRb2 (.5 mg compound, first experiment), 88%; with sCD4 binding to DRb2 (Experiment 2, amount not given) it was 100%. The “Bound CD4 (cpm)” value with sCD4 binding to DRb2 (.1 mg compound, first experiment (none 3600, no DRb2 1100)) was found to be 2400 cpm; with sCD4 binding to DRb2 (.5 mg compound, first experiment (none 3600, no DRb2 1100)), 1400 cpm; in the assay with sCD4 binding to DRb2 (Experiment 2, amount not printed (none 2000, no DRb2 1100)), 800 cpm. Also, the “% Inhibition” value in assay [1] turned out to be 75%. In assay [1] (none 21, background 9), the “Mean Channel Fluorescence” value was 12. Also, the “% response” value in the assay on CD4+ T cells is listed as 55%. Besides, the “3H-TdR incorporation (cpm)” value in the assay on CD4+ T cells (none 45,090 cpm) was 25,000 cpm. Further, the “% inhibition of MLR” value in assay [2] turned out to be 48%. In assay [2] (control 85,000), the “(cpm)” value is 55,000 cpm. The “% protection from syncytia” value with HIV-1MN (6.125 μg) stood at 48%; in the assay on HIV-1MN (12.5 μg) it was 88%. Moreover, the syncytia in the assay on HIV-1MN (6.125 μg) is 35; in the assay on HIV-1MN (12.5 μg) it was 15.
In the case of `C[C@@H](O)[C@@H]1NC(=O)[C@@H](NC(=O)[C@@H](N)Cc2ccccc2)CSSC[C@@H](C(=O)N[C@@H](Cc2ccc(O)cc2)C(=O)O)NC(=O)[C@H](CCCCN)NC(=O)[C@H](CO)NC(=O)[C@@H]2CCCN2C(=O)CNC(=O)[C@H](CCCCN)NC1=O` [SEQ ID NO:3, F, C, T, K, G, P, S, K, C, Y] (H-FCTKGPSKCY-OH; disulfide 2-9), the “% Inhibition” value in assay [1] stood at 83%.
Take `CC(C)C[C@@H]1NC(=O)[C@@H](NC(=O)[C@@H](N)Cc2ccccc2)CSSC[C@@H](C(=O)N[C@@H](Cc2ccc(O)cc2)C(=O)O)NC(=O)[C@H](CC(C)C)NC(=O)[C@H](C(C)C)NC(=O)[C@H](CCC(N)=O)NC(=O)CNC(=O)[C@H](CO)NC(=O)[C@H](CC(=O)O)NC(=O)[C@H](CO)NC1=O` [SEQ ID NO:9, F, C, L, S, D, S, G, Q, V, L, C, Y] (H-FCLSDSGQVLCY-OH; disulfide 2-11): the “% Inhibition” value in assay [1] was determined as 8%. Also, the “% response” value in the assay on CD4+ T cells was found to be 100%.
On to “CDR2R: macrocyclic compound modeled to bind to the reovirus receptor on activated T cells; probably SEQ ID NO:10 (FKTNKCIYSGSTCQF; disulfide 6-13 (inferred))”, for which the “reducing in vivo delayed type hypersensitivity to ABA” value in assay [3] was “efficacious”.
